Measured values reported in patent US10179914B2, “CDC25A inhibitor for the treatment of drug resistant cancer or for the prevention of tumor relapse” (INSERM (INSTITUT NATIONAL DE LA SANTÉ ET DE LA RECHERCHE …, priority 2014, dated 2019).

Legend:
[1] = tested on: primary AML cells expressing wild-type FLT3; assay: Clonogenic assay, FLT3 wild-type primary AML cells; assay type: cell-based, human; details: 100 and 200 nM, day 7
Experimental: (c) Primary cells from patients were cultured in semi-solid medium to estimate their clonogenic potential as described in the Methods section, in the presence or the absence of IRC-083864 (100 and 200 nM). 6 FLT3-ITD positive (upper panel) and 4 FLT3-wild type (lower panel) AML primary samples were used for these experiments. Leukemic colonies were scored under an inverted microscope at day 7.
Patient samples. Patient AML samples were obtained after informed consent in accordance with the Declaration of Helsinki and stored at the HIMIP collection. According to the French law, HIMIP collection has been declared to the Ministry of Higher Education and Research (DC 2008-307 collection 1) and obtained a transfer agreement (AC 2008-129) after approbation by ethical committees (Comité de Protection des Personnes Sud-Ouest et Outremer II and APHP ethical committee). Clinical and biological annotations of the samples have been declared to the CNIL (Comité National Informatique et Libertés i.e. Data processing and Liberties National Committee). Frozen cells were thawed in IMDM medium with 20% FBS and immediately processed for treatment. All patients were diagnosed at the Department of Hematology of Toulouse University Hospital.
Clonogenic assay. […] Leukemic colonies were then scored under an inverted microscope.

[2] = tested on: KG1 cells (FLT3 wild type); assay: Cell proliferation, trypan blue counting, KG1; assay type: cell-based, human
Experimental: (a) MV4-11 and MOLM-14 FLT3-ITD positive cells, KG1, HL-60 and TF-1 FLT3 wild type cells, and K562 FLT3 negative cells were cultured in the presence of the CDC25 inhibitor IRC-083864 (200 nM). Cells were harvested each day and counted after trypan blue coloration. The graph represents three independent experiments.
Cell lines and reagents. Human acute myeloid leukemia cell lines MOLM-14 (Matsuo Y et al, Leukemia 1997) (kindly provided by Martin Carroll, University of Pennsylvania, Philadelphia, Pa., USA) MV4-11, K562 (ACC-102 and ACC-10, DSMZ, Braunschweig, Germany) and FLT3-ITD-expressing murine BaF3 cells were cultured in RPMI 1640 medium (Gibco, Life Technologies, Carlsbad, Calif., USA) supplemented with 10% fetal bovine serum (Sigma, Saint Louis, Calif., USA). TF-1 (ATCC-CRL2003) cells were cultured in RPMI 1640 medium with 10% fetal bovine serum and GM-CSF 2 ng/ml. Concerning MOLM-14 cell line, the presence of a monoallelic 21 bp FLT3-ITD mutation and of an MLL-containing ins(11; 9)(q23;p22p23) were verified (Hematology laboratory of Toulouse University Hospital, Prof E. Delabesse and Dr I. Luquet). KG1 and HL-60 (ACC-14 and ACC-3, DSMZ) cell lines were grown in Iscove's Modified Dulbecco's Medium (IMDM, Gibco) plus 20% FBS. […]
siRNA. […] Twenty-four or forty-eight hours after transfection, cells were counted (trypan blue staining), and western blotting was performed.

SMILES: Cc1nc2c(s1)C(=O)C=C(NCCCN(C)CCCNC1=CC(=O)c3nc(-c4cc(F)ccc4F)oc3C1=O)C2=O [IRC-083864]
- clonogenic potential of primary cells expressing wild-type FLT3 [1]: not sensitive
- proliferation of KG1 ([2]; 200 nM): did not decrease
- proliferation of KG1 upon stimulation by FLT3 ligand ([2]; FLT3 ligand stimulation): had no effect
